# pEC50: −log10 of the molar value. Where two headings read alike, the source gives them in different places.
# Key:
# [1] = Cytotoxicity in mock-infected H1-HeLa cells (antirhinoviral assay, XTT); assay type: cell-based; conditions: human, 50% cytotoxic dose
# Method: (§1) H1-HeLa cells were infected with HRV-14 at a multiplicity of infection (m.o.i.) of 0.13 (virus particles/cell) or mock-infected with medium only. Infected or mock-infected cells were resuspended at 8×10^5 cells per mL, and incubated with appropriate concentrations of the compounds to be tested. Two days later, XTT/PMS was added to test plates and the amount of formazan produced was quantified spectrophotometrically at 450/650 nm. The EC50 value was calculated as the concentration of compound that increased the percentage of formazan production in compound-treated, virus-infected cells to 50% of that produced by compound-free, mock-infected cells. The 50% cytotoxic dose (CC50) was calculated as the concentration of compound that decreased the percentage of formazan produced in compound-treated, mock-infected cells to 50% of that produced by compound-free, mock-infected cells. The therapeutic index (TI) was calculated by dividing the CC50 value by the EC50 value.
# (§2) All strains of human rhinovirus (HRV) for use in this assay were purchased from American Type Culture Collection (ATCC), except for HRV serotype-14 (produced from the infectious cDNA clone constructed by Dr. Robert Rueckert, Institute for Molecular Virology, University of Wisconsin, Madison, Wis.). HRV stocks were propagated and viral assays were performed in H1-HeLa cells (ATCC). Cells were grown in minimal essential medium with 10% fetal bovine serum, available from Life Technologies (Gaithersburg, Md.).
# [2] = tested on: HRV-14; assay: Antirhinoviral H1-HeLa cell culture assay (XTT), HRV-14; assay type: cell-based, human rhinovirus
# Method: Antirhinoviral H1-HeLa Cell Culture Assay
# In this cell protection assay, the ability of compounds to protect cells against HRV infection was measured by the XTT dye reduction method, which is described in Weislow et al., J. Natl. Cancer Inst. 1989, vol. 81, 577-586.
# as §1, §2
# The compounds were tested against control compounds WIN 51711, WIN 52084, and WIN 54954 (obtained from Sterling-Winthrop Pharmaceuticals), Pirodavir (obtained from Janssen Pharmaceuticals), and Pleconaril (prepared according to the method described in Diana et al., J. Med. Chem 1995, vol. 38, 1355). Antiviral data obtained for the test compounds are shown in Tables 1 and 3, where all data are for HRV serotype-14 unless otherwise noted in parentheses.
# [3] = HRV serotype-14, H1-HeLa cells (Table 1), read-out: Cell Protection EC50
# [4] = HRV serotype-14, H1-HeLa cells (Table 3), read-out: EC50
SMILES,CC50 at 2 days [1],further results
"CCOC(=O)/C=C/[C@H](CCC(N)=O)NC(=O)[C@H](Cc1ccc(F)cc1)NC(=O)[C@@H](NC(=O)c1cc(C)on1)C(C)(C)C [(A-4), Ethyl-3-((5′-Methylisoxazole-3′-carbonyl)-L-α-(t-Butyl-Gly)-L-(4-F-Phe)-L-Gln)-E-Propenoate]",> 100 µM,–
"CCOC(=O)/C=C/[C@H](C[C@@H]1CCNC1=O)NC(=O)[C@H](Cc1ccccc1)NC(=O)[C@@H](NC(=O)OCc1ccccc1)C(C)C [(A-25), Ethyl-3-{Cbz-L-Val-L-Phe-L-((S)-Pyrrol-Ala)}-E-Propenoate]",> 100 µM,–
CCOC(=O)/C=C/[C@H](CCC(N)=O)NC(=O)[C@H](Cc1ccccc1)NC(=O)[C@H](CC(C)C)NC(=O)c1cc(C)oc1C [(A-20)],–,"pEC50 [2, 3]: 4.90; pEC50 [2, 4]: 4.90"
"CCOC(=O)/C=C/[C@H](CCC(N)=O)NC(=O)[C@H](Cc1ccc(F)cc1)N(C)C(=O)[C@H](Cc1cccc2ccccc12)NC(=O)c1cc(C)on1 [(A-13), Ethyl-3-{(5′-Methylisoxazole-3′-carbonyl)-L-(1-Naphth)-NCH3-L-(4-F-Phe)-L-Gln}-E-Propenoate]",> 10 µM,–
"CCOC(=O)/C=C/[C@H](CCC(N)=O)NC(=O)[C@H](Cc1ccc(F)cc1)N(C)C(=O)[C@H](Cc1ccc2ccccc2c1)NC(=O)c1cc(C)on1 [(A-11), Ethyl-3-{(5′-Methylisoxazole-3′-carbonyl)-L-(2-Naphth)-NCH3-L-(4-F-Phe)-L-Gln}-E-Propenoate]",50 µM,–
"CCOC(=O)/C=C/[C@H](CCC(N)=O)NC(=O)[C@H](Cc1ccc(F)cc1)N(C)C(=O)[C@H](Cc1c[nH]cn1)NC(=O)c1cc(C)on1 [(A-9), Ethyl-3-{(5′-Methylisoxazole-3′-carbonyl)-L-His-NCH3-L-(4-F-Phe)-L-Gln}-E-Propenoate]",> 100 µM,–
"CCOC(=O)/C=C/[C@H](CCC(N)=O)NC(=O)[C@@H](CC(=O)[C@@H](NC(=O)c1cc(C)on1)C(C)C)Cc1ccc(F)cc1 [(B-1), Ethyl-3-{(5′-Methylisoxazole-3′-carbonyl)-L-ValΨ(COCH2)-L-(4-F-Phe)-L-Gln}-E-Propenoate]",> 100 µM,melting point: 220 °C (dec.)
CC(C)[C@H](NC(=O)C1SCCS1)C(=O)N[C@@H](Cc1ccc(F)cc1)C(=O)N[C@H](/C=C/C(=O)OCc1cccnc1)CCC(N)=O [(A-18)],–,"pEC50 [2, 3]: 5.82; pEC50 [2, 4]: 5.82"
"CCOC(=O)/C=C/[C@H](CCC(N)=O)NC(=O)[C@H](Cc1ccc(F)cc1)OC(=O)[C@@H](NC(=O)c1cc(C)on1)C(C)C [(C-1), Ethyl-3-{(5′-Methylisoxazole-3′-carbonyl)-L-Val-O-L-(4-F-Phe)-L-Gln}-E-Propenoate]",> 10 µM,–
CCOC(=O)/C=C/[C@H](CCC(N)=O)NC(=O)[C@H](Cc1ccccc1)NC(=O)[C@H](CC(C)C)NC(=O)[C@@H]1C=CCN1 [(A-19)],–,"pEC50 [2, 3]: 4.60; pEC50 [2, 4]: 4.60"
"CCOC(=O)/C=C/[C@H](CCC(N)=O)NC(=O)[C@H](Cc1ccccc1)N(C)C(=O)[C@H](CC(C)C)NC(=O)c1cc(C)on1 [(A-10), Ethyl-3-((5′-Methylisoxazole-3′-carbonyl)-L-Leu-NCH3-L-Phe-L-Gln}-E-Propenoate]",> 100 µM,"pEC50 ([2]; Rhinovirus B, HRV14, HRV serotype-14, H1-HeLa cells (Table 1), read-out: Cell Protection EC50): 6.85; pEC50 ([2]; Rhinovirus B, HRV14, HRV serotype-14, H1-HeLa cells (Table 3), read-out: EC50): 6.85"
"CCOC(=O)/C=C/[C@H](CCC(N)=O)NC(=O)[C@H](Cc1ccccc1)NC(=O)[C@H](CC(C)C)NC(=O)OCc1ccccc1 [Comparison Compound #2, Ethyl-3-(Cbz-L-Leu-L-Phe-L-Gln)-E-Propenoate]",> 320 µM,melting point: 219 to 221 °C
"CCOC(=O)/C=C/[C@H](CCC(N)=O)NC(=O)[C@H](Cc1ccc(F)cc1)N(C)C(=O)[C@H](CC(C)C)NC(=O)c1cc(C)on1 [(A-12), Ethyl-3-{(5′-Methylisoxazole-3′-carbonyl)-L-Leu-NCH3-L-(4-F-Phe)-L-Gln}-E-Propenoate]",> 100 µM,–
"CCOC(=O)/C=C/[C@H](CCC(N)=O)NC(=O)[C@H](Cc1ccc(C)cc1)NC(=O)[C@@H](NC(=O)c1cc(C)on1)C(C)(C)C [(A-3), Ethyl-3-((5′-Methylisoxazole-3′-carbonyl)-L-α-(t-Butyl-Gly)-L-(4-Me-Phe)-L-Gln)-E-Propenoate]",> 10 µM,–
"CCOC(=O)/C=C/[C@H](CCC(N)=O)NC(=O)[C@H](Cc1ccccc1)NC(=O)[C@H](CC(C)C)NC(=O)c1ccno1 [(A-2), Ethyl-3-((Isoxazole-5′-carbonyl)-L-Leu-L-Phe-L-Gin)-E-Propenoate]",> 100 µM,–
"CCOC(=O)/C=C/[C@H](C[C@@H]1CCNC1=O)NC(=O)[C@H](Cc1ccc(F)cc1)OC(=O)[C@@H](NC(=O)c1cc(C)on1)C(C)C [(C-2), Ethyl-3-{(5′-Methylisoxazole-3′-carbonyl)-L-Val-O-L-(4-F-Phe)-L-((S)-Pyrrol-Ala)}-E-Propenoate]",> 10 µM,–
CCOC(=O)/C=C/[C@H](CN1CCNC1=O)NC(=O)[C@H](Cc1ccccc1)NC(=O)[C@H](CC(C)C)NC(=O)OCc1ccccc1,–,melting point: 161 to 164 °C
"CCOC(=O)/C=C/[C@H](CCC(N)=O)NC(=O)[C@H](Cc1ccc(F)cc1)NC(=O)[C@@H](NC(=O)c1cc(C)on1)C(C)C [(A-6), Ethyl-3-[(5′-Methylisoxazole-3′-carbonyl)-L-Val-L-(4-F-Phe)-L-Gln]-E-Propenoate]",> 100 µM,–
"CCOC(=O)/C=C/[C@H](CCC(N)=O)NC(=O)[C@H](Cc1ccccc1)NC(=O)[C@H](CC(C)C)NC(=O)c1cc(C)on1 [(A-1), Ethyl-3-((5′-Methylisoxazole-3′-carbonyl)-L-Leu-L-Phe-L-Gln)-E-Propenoate]",> 100 µM,melting point: 223 to 225 °C
CCOC(=O)/C=C/[C@H](CCC(N)=O)NC(=O)[C@H](Cc1ccccc1)NC(=O)[C@@H](NC(=O)c1cccs1)C(C)(C)C [(A-14)],–,"pEC50 [2, 3]: 6.32; pEC50 [2, 4]: 6.32"
CCOC(=O)/C=C/[C@H](CCC(N)=O)NC(=O)[C@H](Cc1ccccc1)NC(=O)[C@H](CC(C)C)NC(=O)c1nc(C)c[nH]1 [(A-21)],–,"pEC50 [2, 3]: 5.60; pEC50 [2, 4]: 5.60"
"CCOC(=O)/C=C/[C@H](C[C@@H]1CCNC1=O)NC(=O)[C@H](Cc1ccccc1)NC(=O)[C@H](CC(C)C)NC(=O)OCc1ccccc1 [(A-24), Ethyl-3-{Cbz-L-Leu-L-Phe-L-((S)-Pyrrol-Ala)}-E-Propenoate]",> 100 µM,–
"CCOC(=O)/C=C/[C@H](C[C@H]1CCNC1=O)NC(=O)[C@H](Cc1ccccc1)NC(=O)[C@H](CC(C)C)NC(=O)OCc1ccccc1 [(A-27), Ethyl-3-{Cbz-L-Leu-L-Phe-L-((R)-Pyrrol-Ala)}-E-Propenoate]",> 100 µM,–
"CCOC(=O)/C=C/[C@H](C[C@@H]1CCCNC1=O)NC(=O)[C@@H](CC(=O)[C@@H](NC(=O)c1cc(C)on1)C(C)C)Cc1ccc(F)cc1 [(B-4), Ethyl-3-{(5′-Methylisoxazole-3′-carbonyl)-L-ValΨ(COCH2)-L-(4-F-Phe)-L-((S)-Piper-Ala)}-E-Propenoate]",> 100 µM,–
"CCOC(=O)/C=C/[C@H](C[C@@H]1CCCNC1=O)NC(=O)[C@H](Cc1ccccc1)NC(=O)[C@H](CC(C)C)NC(=O)OCc1ccccc1 [(A-26), Ethyl-3-{Cbz-L-Leu-L-Phe-L-((S)-Piper-Ala)}-E-Propenoate]",> 100 µM,–
"Cc1cc(C(=O)N[C@H](C(=O)C[C@@H](Cc2ccc(F)cc2)C(=O)N[C@H](/C=C2\CCOC2=O)C[C@@H]2CCNC2=O)C(C)C)no1 [(B-3), 2-{(5′-Methylisoxazole-3′-carbonyl)-L-ValΨ(COCH2)-L-(4-F-Phe)-L-((S)-Pyrrol-Ala)}-E-(α-Vinyl-γ-Butyrolactone)]",> 100 µM,–
"CC(C)C[C@H](NC(=O)OCc1ccccc1)C(=O)N[C@@H](Cc1ccccc1)C(=O)N[C@H](/C=C/c1ccno1)CCC(N)=O [Comparison Compound #1, 5-(3′-(Cbz-L-Leu-L-Phe-L-Gln)-E-Propene)-Isoxazole, reference compound]",> 320 µM,–

# From patent publication US6906198B1, “Antipicornaviral compounds, their preparation and use” (Agouron Pharmaceuticals, Inc., priority 1998, dated 2005)
